Literature values as cited in US20230022721A1, “COMPOSITIONS AND METHODS FOR INHIBITION AND INTERRUPTION OF BIOFILM FORMATION” (DENTSPLY SIRONA Inc., priority 2016, published 2023).

Columns and labels:
[1] = tested on: Bacteria: Gram-positive bacteria; conditions: vs model compound
[2] = tested on: Bacteria: E. coli; S. aureus; S. typhimurium
[3] = tested on: Bacteria: P. aeruginosa; Staphylococcus spp.
[4] = tested on: Bacteria: S. aureus; P. aeruginosa; E. coli
[5] = tested on: Fungi: C. albicans; A. niger

## C=Cc1ccc(C[S+]2CCCC2)cc1
[1]
  Comparison of Polymers with Monomer: The homopolymer is more effective than the corresponding model compound (p- ethylbenzyl tetramethylene sulforium tetrafluoroborate).

## C=CC(=O)Oc1ccc(Cl)c2cccnc12
[2]
  Comparison of Polymers with Monomer: The homopolymer and the copolymers with acrylamide are both less effective than the monomer.^[13]

## C=CC(=O)Oc1cc(Cl)ccc1Oc1ccc(Cl)cc1Cl
[3]
  Comparison of Polymers with Monomer: The homopolymer and copolymers with methyl methacrylate, styrene are all less effective than the monomer.^[10]

## C=C(C)C(=O)OCC(O)CSc1nnc(C)s1 (centres unmarked)
[4]
  Comparison of Polymers with Monomer: The homopolymer is more effective than the monomer.^[8]

## Cc1cc(NS(=O)(=O)c2ccc(N3C(=O)C=CC3=O)cc2)no1
[5]
  Comparison of Polymers with Monomer: The homopolymer is more effective than the monomer at all concentrations.^[6]
